# In patent US20050148631A1, “Amino heterocyclyl inhibitors of 11-beta-hydroxy steroid dehydrogenase type 1” (AGOURON PHARMACEUTICALS, INC., priority 2003, published 2005):
# Molecular target: 11β-hsd-1 enzyme (Homo sapiens, UniProt P28845)
# Experiment: 11β-hsd-1 enzyme assay, percentage of inhibition (3H-cortisone to cortisol, radio-HPLC)
# Format: biochemical
# Conditions: 0.1 uM
# Chain of 11β-hsd-1 enzyme (P28845 whole entry, species assumed): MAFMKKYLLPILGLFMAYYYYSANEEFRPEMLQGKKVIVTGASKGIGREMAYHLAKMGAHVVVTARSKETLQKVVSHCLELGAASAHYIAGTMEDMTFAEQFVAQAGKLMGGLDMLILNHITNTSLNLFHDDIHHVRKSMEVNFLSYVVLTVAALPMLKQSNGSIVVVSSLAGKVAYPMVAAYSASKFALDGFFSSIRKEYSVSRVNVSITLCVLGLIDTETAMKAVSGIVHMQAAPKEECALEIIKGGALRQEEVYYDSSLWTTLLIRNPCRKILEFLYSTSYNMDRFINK
row,Compound,% inh @ 0.1 uM [%]
1,Cc1cc(C)nc(NS(=O)(=O)c2ccc(C(F)(F)F)cc2)c1 [Example 45],35

# Same assay, conditions: 0.1 uM; read-out: % inh @ 0.1 uM
row,Compound,inhibition at 0.1 µM [%]
1,COC(=O)CCc1ccc(NS(=O)(=O)c2cccc(Cl)c2C)nc1 [Example 3],19.6
2,COC(=O)c1cccc(NS(=O)(=O)c2cccc(Cl)c2C)n1 [Example 4],23.9
3,CCOC(=O)Cc1cccc(NS(=O)(=O)c2ccc(C(F)(F)F)cc2)n1 [Example 5],0.3
4,COC(=O)c1cccc(NS(=O)(=O)c2ccc(-c3ccc(C#N)cc3)cc2)n1 [Example 7],7.7
5,"Cc1c(Cl)cccc1S(=O)(=O)Nc1cccc(CC(=O)N2CCOCC2)n1 [Example 8, 3-Chloro-2-methyl-N-[6-(2-morpholin-4-yl-2-oxo-ethyl)-pyridin-2-yl]-benzenesulfonamide]",5.52
6,Cc1c(Cl)cccc1S(=O)(=O)Nc1cccc(CC(=O)N2CCCCC2)n1 [Example 9],54.8
7,Cc1c(Cl)cccc1S(=O)(=O)Nc1cccc(CC(=O)N2CCSCC2)n1 [Example 10],38.7
8,Cc1c(Cl)cccc1S(=O)(=O)Nc1cccc(CC(=O)NCc2ccc(C(F)(F)F)cc2)n1 [Example 13],9.1
9,Cc1cc(CC(=O)N2CCCCC2)nc(NS(=O)(=O)c2cccc(Cl)c2C)c1 [Example 14],25.9
10,CCN(CC)C(=O)Cc1cc(C)cc(NS(=O)(=O)c2cccc(Cl)c2C)n1 [Example 15],23.6
11,C=CCN(C)C(=O)Cc1cccc(NS(=O)(=O)c2cccc(Cl)c2C)n1 [Example 16],10.9
12,Cc1c(Cl)cccc1S(=O)(=O)Nc1cccc(CC(=O)N2CCCC2)n1 [Example 17],11.4
13,CCN(CC)C(=O)CCc1ccc(NS(=O)(=O)c2cccc(Cl)c2C)nc1 [Example 18],34.6
14,CCN(CC)C(=O)Cc1cccc(NS(=O)(=O)c2ccc(C)cc2)n1 [Example 23],4.9
15,CCN(CC)C(=O)Cc1cccc(NS(=O)(=O)c2ccc(F)cc2)n1 [Example 24],3.7
16,CCN(CC)C(=O)Cc1cccc(NS(=O)(=O)c2ccc(C(C)C)cc2)n1 [Example 25],42.8
17,"Cc1c(Cl)cccc1S(=O)(=O)Nc1cccc(CC(=O)O)n1 [Example 26, [6-(3-Chloro-2-methyl-benzenesulfonylamino)-pyridin-2-yl]-acetic acid]",25.2
18,"Cc1c(Cl)cccc1S(=O)(=O)Nc1cccc(CC(=O)NC23CC4CC(CC(C4)C2)C3)n1 [Example 27, N-Adamantan-1-yl-2-[6-(3-chloro-2-methyl-benzenesulfonylamino)-pyridin-2-yl]-acetamide]",1.9
19,Cc1c(Cl)cccc1S(=O)(=O)Nc1cccc(CC(=O)N2CCCC(C)(C)C2)n1 [Example 28],45.6
20,Cc1c(Cl)cccc1S(=O)(=O)Nc1cccc(CC(=O)N(CCC#N)C2CC2)n1 [Example 29],10.9
21,Cc1c(Cl)cccc1S(=O)(=O)Nc1cccc(CC(=O)N(C)C(C)C)n1 [Example 30],15.9
22,Cc1c(Cl)cccc1S(=O)(=O)Nc1cccc(CC(=O)N(C)C)n1 [Example 31],11.3
23,Cc1c(Cl)cccc1S(=O)(=O)Nc1cccc(CC(=O)N2CCC(F)(F)CC2)n1 [Example 32],20.4
24,Cc1cc(C)nc(NS(=O)(=O)c2cccc(Cl)c2C)c1 [Example 44],16
25,Cc1cccc(NS(=O)(=O)c2ccc(Oc3ccccc3)cc2)n1 [Example 47],21
26,Cc1ccc(S(=O)(=O)Nc2cccc(C)n2)cc1 [Example 49],82.6

row,Compound,inhibition at 0.1 µM [%]
1,Cc1cccc(NS(=O)(=O)c2cccc(C(F)(F)F)c2)n1 [Example 50],10.1
2,Cc1cccc(NS(=O)(=O)c2cccc3ccccc23)n1 [Example 51],10.2
3,Cc1cccc(NS(=O)(=O)c2ccc(C(C)(C)C)cc2)n1 [Example 52],32
4,Cc1cccc(NS(=O)(=O)c2ccc(C#N)cc2Cl)n1 [Example 53],10.1
5,Cc1cccc(NS(=O)(=O)c2ccccc2C(F)(F)F)n1 [Example 54],1
6,Cc1cccc(NS(=O)(=O)c2ccc(F)cc2F)n1 [Example 55],7.4
7,O=S(=O)(Nc1ccc2cc[nH]c2c1)c1ccc(-c2ccc(F)cc2)cc1 [Example 57],4.5
8,Cc1cc(C)nc(NS(=O)(=O)c2cccc(Cl)c2C)n1 [Example 58],4
9,Cc1ccnc(NS(=O)(=O)c2ccc(-c3ccccc3)cc2)n1 [Example 59],3.8
10,O=S(=O)(Nc1ccc2nc[nH]c2c1)c1ccc(-c2ccc(F)cc2)cc1 [Example 60],31.9
11,COc1cccc(NS(=O)(=O)c2ccc(C(F)(F)F)cc2)n1 [Example 62],1.3
12,Cc1cccc(NS(=O)(=O)c2ccc3oc4ccccc4c3c2)n1 [Example 63],32.7
13,O=S(=O)(Nc1cccc(CN2CCOCC2)n1)c1ccc(-c2ccccc2)cc1 [Example 64],8.9
14,Cc1ccc(NS(=O)(=O)c2ccc(-c3ccccc3)cc2)nc1 [Example 66],33.8
15,Cc1cccc(NS(=O)(=O)Cc2cccc(Cl)c2)n1 [Example 67],49.6
16,Cc1cccc(NS(=O)(=O)Cc2ccc(C(F)(F)F)cc2)n1 [Example 73],17.3
17,Cc1cccc(NS(=O)(=O)Cc2ccc(Cl)c(Cl)c2)n1 [Example 74],28.9
18,Cc1cccc(NS(=O)(=O)Cc2cc(Cl)cc(Cl)c2)n1 [Example 75],19.2
19,CCc1cccc(NS(=O)(=O)c2ccc(C(C)C)cc2)n1 [Example 76],15.6
20,Cc1cc(C)nc(NS(=O)(=O)c2ccc(C(F)(F)F)cc2)c1 [Example 77],35.4
21,COc1cccc(NS(=O)(=O)c2ccc(-c3ccc(C#N)cc3)cc2)n1 [Example 78],8.2
22,CN(C)Cc1cccc(NS(=O)(=O)c2ccc(-c3ccc(C#N)cc3)cc2)n1 [Example 79],8.1
23,Cc1cccc(NS(=O)(=O)c2c(Cl)nc3sccn23)n1 [Example 80],8
24,COc1ccc(S(=O)(=O)Nc2cccc(C)n2)cc1 [Example 81],23.4
25,N#Cc1ccc(-c2ccc(S(=O)(=O)Nc3ccccn3)cc2)cc1 [Example 82],53.4
26,Cc1cccc(NS(=O)(=O)c2ccc(N3CCOCC3)nc2)n1 [Example 83],11.1

row,Compound,inhibition at 0.1 µM [%]
1,Cc1c(S(=O)(=O)Nc2cccc(CN(C)C)n2)sc2ccc(Cl)cc12 [Example 84],26.4
2,COc1ccc(C)nc1NS(=O)(=O)c1ccc(C(F)(F)F)cc1 [Example 89],3.7
3,Cc1cccc(NS(=O)(=O)c2ccc(C#N)cc2)n1 [Example 90],24.8
4,Cc1cccc(NS(=O)(=O)c2ccc(-n3cccn3)cc2)n1 [Example 92],29.8
5,Cc1cc(C)nc(NS(=O)(=O)c2sc(-c3ccccc3)nc2C)c1 [Example 97],31.7
6,Cc1cccc(NS(=O)(=O)c2sc(C)nc2C)n1 [Example 98],8.9
7,Cc1cccc(NS(=O)(=O)c2cnn(-c3ccccc3)c2C)n1 [Example 99],15
8,CC(=O)Nc1nc(C)c(S(=O)(=O)Nc2cc(C)cc(C)n2)s1 [Example 100],19.2
9,Cc1nc(NS(=O)(=O)c2ccc(-c3ccc(C#N)cc3)cc2)ccc1C#N [Example 101],32
10,N#Cc1ccc(-c2ccc(S(=O)(=O)Nc3cc(O)c4ccccc4n3)cc2)cc1 [Example 105],16.9
11,Cc1cc(C)c2ccc(NS(=O)(=O)c3ccc(-c4ccc(C#N)cc4)cc3)nc2n1 [Example 106],5.4
12,"Cc1cccc(N(C)S(=O)(=O)c2ccc(-c3ccc(C#N)cc3)cc2)n1 [Example 110, 4′-Cyano-biphenyl-4-sulfonic acid methyl-(6-methyl-pyridin-2-yl)-amide]",8.1
13,"Cc1cc(N)nc(NS(=O)(=O)c2ccc(-c3ccc(C#N)cc3)cc2)c1 [Example 113, 4′-Cyano-biphenyl-4-sulfonic acid (6-amino-4-methyl-pyridin-2-yl)-amide]",100
14,"Cc1c(Cl)cccc1S(=O)(=O)Nc1cccc(CCO)n1 [Example 114, 3-Chloro-N-[6-(2-hydroxy-ethyl)-pyridin-2-yl]-2-methyl-benzenesulfonamide]",11.3
15,Cc1c(Cl)cccc1S(=O)(=O)Nc1cccc(CO)n1 [Example 116],37.2
16,COc1ccccc1-c1ccc(S(=O)(=O)Nc2cccc(C)n2)cc1 [Example 120],71.7
17,CCOc1cccc(-c2ccc(S(=O)(=O)Nc3cccc(C)n3)cc2)c1 [Example 121],61.4
18,Cc1cccc(NS(=O)(=O)c2ccc(-c3ccccc3C(F)(F)F)cc2)n1 [Example 122],85.7
19,Cc1cccc(NS(=O)(=O)c2ccc(-c3ccc(F)c(Cl)c3)cc2)n1 [Example 123],89.9
20,Cc1ccc(-c2ccc(S(=O)(=O)Nc3cccc(C)n3)cc2)cc1 [Example 124],84
21,Cc1cccc(NS(=O)(=O)c2ccc(-c3ccccc3Cl)cc2)n1 [Example 125],87.8
22,Cc1cccc(NS(=O)(=O)c2ccc(-c3ccccc3C)cc2)n1 [Example 126],77.6
23,C=Cc1ccc(-c2ccc(S(=O)(=O)Nc3cccc(C)n3)cc2)cc1 [Example 127],100
24,CSc1ccc(-c2ccc(S(=O)(=O)Nc3cccc(C)n3)cc2)cc1 [Example 129],86.3
25,Cc1cccc(NS(=O)(=O)c2ccc(-c3cccc(C(F)(F)F)c3)cc2)n1 [Example 130],78.9
26,Cc1cccc(NS(=O)(=O)c2ccc(-c3cc(Cl)cc(Cl)c3)cc2)n1 [Example 131],100

# Same assay, conditions: read-out: % inh @ 0.1 uM
row,Compound,inhibition at 0.1 µM [%]
1,Cc1c(Cl)cccc1S(=O)(=O)Nc1cccc(CC(=O)N2CCN(C)CC2)n1 [Example 11],8.05
2,Cc1c(Cl)cccc1S(=O)(=O)Nc1cccc(CC(=O)N2CCN(Cc3ccccc3)CC2)n1 [Example 12],21.5
